Source: publication PMC9503778, “Targeted Isolation of Antibiotic Brominated Alkaloids from the Marine Sponge Pseudoceratina durissima Using Virtual Screening and Molecular Networking” (Marine Drugs, 2022)
Converted amounts (≈) assume the structure as drawn. “And” between values parts separate entries of the source, which are not always exact repeats. Equal entries are not always repeated. Where two headings read alike, the source gives them in different places.

Key:
[1] = Cytotoxicity assay (CO-ADD); format: cell-based; conditions: human, human embryonic kidney cells
human red blood cells = assay: Haemolysis assay (CO-ADD); format: cell-based
[2] = test system: MRSA (G+) strain ATCC 43300; assay: Antimicrobial growth inhibition (CO-ADD), MRSA; format: cell-based, Staphylococcus aureus; conditions: for MIC: Staphylococcus aureus, read-out: MIC MRSA
Protocol: (§1) Compounds 1−3 and 5−12 were assayed against a selection of medically important pathogenic microorganisms (MRSA, E. coli, K. pneumoniae, A. baumanii, P. aeruginosa, C. albicans, C. neoformans), Table 4. […] To the best of our knowledge this compound had not been tested against any drug resistant strain of Gram-positive bacterium until this study.
(§2) The antimicrobial activity testing was performed by the Community for Antimicrobial Drug Discovery (CO-ADD). Compounds were assayed against a range of both Gram negative and Gram positive bacteria (see Supplementary Materials S3) including methicillin-resistant Staphylococcus aureus (MRSA) (G+), Escherichia coli (G-), Klebsiella pneumoniae (G-), Acinetobacter baumannii (G-), Pseudomonas aeruginosa (G-) together with two species of fungus (Candida albicans and Cryptococcus neoformans).
(§3) S3. Antimicrobial activity testing methodology
(§4) The compounds submitted to CO-ADD were evaluated in duplicate (n = 2) against seven microorganisms (five bacteria and two fungi) at a concentration of 32 µg/mL in a 384-well, non-binding surface plate (NBS) for each bacterial/fungal strain, keeping the final DMSO concentration to a maximum of 1% DMSO. All bacteria were cultured in cation-adjusted Mueller-Hinton broth (CAMHB) at 37 °C overnight. A sample of each culture was then diluted 40-fold in fresh broth and incubated at 37 °C for 1.5-3 h. The resultant mid-log phase cultures were diluted (CFU/mL measured by OD600), then added to each well of the compound containing plates, giving a cell density of 5x10^5 CFU/mL and a total volume of 50 µL. All the plates were covered and incubated at 37 °C for 18 h without shaking. […] Inhibition of bacterial growth was determined measuring absorbance at 600 nm (OD600) using a Tecan M1000 Pro mon-ochromator plate reader. […]
(§5) 2 h. The absorbance was measured using a Biotek Synergy HTX plate reader. The percentage of growth inhibition was calculated for each well, using negative control (medium only) and positive control (bacteria without inhibitors) on the same plate as the references. The significance of inhibition values was determined by modified Z-scores, calculated using the median and MAD of the samples (no controls) on the same plate. Samples with inhibition value above 80% and Z-score above 2.5 for either replicate (n = 2 on different plates) were classed as actives.
(§6) Colistin and vancomycin were used as positive bacterial inhibitor standards for Gram-negative and Gram-positive bac-teria, respectively. Fluconazole was used as a positive fungal inhibitor standard for C. albicans and C. neoformans. The antibiotics were provided in four concentrations, with two above and two below its MIC value, and plated into the first eight wells of column 23 of the 384-well NBS plates. The quality control (QC) of the assays was determined by the antimicrobial controls and the Z’-factor (using positive and negative controls). Each plate was deemed to fulfil the qual- […]
(§7) full growth inhibition at their highest concentration, and no growth inhibition at their lowest concentration. The seven […]
(§8) test microorganisms were Staphylococcus aureus MRSA (ATCC 43300), Escherichia coli (ATCC 25922), Klebsiella pneu-moniae (ATCC 700603), Acinetobacter baumanii (ATCC19606), Pseudomonas aeruginosa (ATCC 27853), Candida albicans (ATCC 90028) and Cryptococcus neoformans var. grubii (H99; ATCC 208821).
(§9) S4. Anthelmintic activity testing methodology
(§10) Dose-response evaluations were carried out to estimate the half-maximal inhibitory concentrations (IC50 values) for compounds against Haemonchus contortus (Haecon-5 strain) exsheathed third-stage larvae (xL3s). H. contortus were maintained in experimental sheep and procured in accordance with the institutional animal ethics guidelines and the regulations of Australia (permit no. 1714374; University of Melbourne). Immediately prior to use, third-stage larvae (L3s) were exsheathed and sterilised by incubation in 0.15% (v/v) bleach at 38 °C for 20 min, followed by washes in […]

[3] = test system: E. Coli (G-) strain ATCC 25922; assay: Antimicrobial growth inhibition (CO-ADD), E. coli; format: cell-based, Escherichia coli; conditions: for % inhibition E. coli: 32 µg/mL; for % inhibition E. coli / inhibition at 32 µg/mL: duplicate (n = 2) values; for inhibition at 32 µg/mL / MIC: Escherichia coli; for inhibition at 32 µg/mL: ATCC25922, 32 µg/mL, read-out: % inhibition E. coli; for MIC: ATCC25922, read-out: MIC E. coli
Protocol: as §1, §2, §3, §4, §5, §6, §7, §8, §9, §10

[4] = test system: K. pneumoniae (G-) strain ATCC 700603; assay: Antimicrobial growth inhibition (CO-ADD), K. pneumoniae; format: cell-based, Klebsiella pneumoniae; conditions: for % inhibition K. pneumoniae: 32 µg/mL; for % inhibition K. pneumoniae / inhibition at 32 µg/mL: duplicate (n = 2) values; for inhibition at 32 µg/mL / MIC: Klebsiella pneumoniae; for inhibition at 32 µg/mL: ATCC700603, 32 µg/mL, read-out: % inhibition K. pneumoniae; for MIC: ATCC700603, read-out: MIC K. pneumoniae
Protocol: as §1, §2, §3, §4, §5, §6, §7, §8, §9, §10

[5] = test system: A. baumannii (G-) strain ATCC 19606; assay: Antimicrobial growth inhibition (CO-ADD), A. baumannii; format: cell-based, Acinetobacter baumannii; conditions: for MIC: Acinetobacter baumannii, ATCC19606, read-out: MIC A. baumannii
Protocol: as §1, §2, §3, §4, §5, §6, §7, §8, §9, §10

[6] = test system: P. auruginosa (G-) strain ATCC 27853; assay: Antimicrobial growth inhibition (CO-ADD), P. aeruginosa; format: cell-based, Pseudomonas aeruginosa; conditions: ATCC 27853; for MIC: Pseudomonas aeruginosa, ATCC27853, read-out: MIC P. aeruginosa
Protocol: as §1, §2, §3, §4, §5, §6, §7, §8, §9, §10

[7] = test system: C. albicans (yeast) ATCC 90028; assay: Antimicrobial growth inhibition (CO-ADD), C. albicans; format: cell-based, Candida albicans; conditions: Candida albicans, ATCC90028; ATCC 90028; read-out: MIC C. albicans
Protocol: as §1, §2, §3
(§11) The compounds submitted to CO-ADD were evaluated in duplicate (n = 2) against seven microorganisms (five bacteria and two fungi) at a concentration of 32 µg/mL in a 384-well, non-binding surface plate (NBS) for each bacterial/fungal strain, keeping the final DMSO concentration to a maximum of 1% DMSO. All bacteria were cultured in cation-adjusted […]
(§12) Fungal strains were cultured for 3 days on Yeast Extract-Peptone Dextrose (YPD) agar at 30 °C. A yeast suspension of 1 x 10^6 to 5 x 10^6 CFU/mL (as determined by OD530) was prepared from five colonies. The suspension was subsequently diluted and added to each well of the compound-containing plates giving a final cell density of fungi suspension of 2.5 x 10^3 CFU/mL and a total volume of 50 µL. All plates were covered and incubated at 35 °C for 24 h without shaking. […]
as §5, §6, §7, §8, §9
Dose-response evaluations were carried out to estimate the half-maximal inhibitory concentrations (IC50 values) for compounds against Haemonchus contortus (Haecon-5 strain) exsheathed third-stage larvae (xL3s). H. contortus were maintained in experimental sheep and procured in accordance with the institutional animal ethics guidelines and the regulations of Australia (permit no. 1714374; University of Melbourne). Immediately prior to use, third-stage larvae (L3s) were exsheathed and sterilised by incubation in 0.15% (v/v) bleach at 38 °C for 20 min, followed by washes in sterile saline at room temperature (22-24 °C). […]

[8] = test system: C. neoformans var. grubii strain ATCC 208821; assay: Antimicrobial growth inhibition (CO-ADD), C. neoformans; format: cell-based; conditions: Cryptococcus neoformans, ATCC208821; var. grubii ATCC 208821; read-out: MIC C. neoformans
[9] = test system: zebrafish larvae at 5 dpf; parameters: method as in PMID 35200664; conditions: cited from earlier work
[10] = test system: Mediterranean fish species Blennius sphinx; parameters: method as in PMID 15018063; conditions: cited from earlier work
[11] = test system: C. neoformans var. grubii strain ATCC 208821; assay: Antimicrobial growth inhibition (CO-ADD), C. neoformans; format: cell-based, Cryptococcus neoformans; conditions: duplicate (n = 2) values
Protocol: as §1, §2, §3, §11, §12
as §5, with “Growth inhibition of C. albicans was determined measuring absorbance at 530 nm (OD530), while the growth inhibition of C. neoformans was determined measuring the difference in absorbance between 600 and 570 nm (OD600-570), after the addition of resazurin (0.001% final concentration) and incubation at 35 °C for an additional 2 h.” for “2 h.”
as §6, §7, §8, §9
Dose-response evaluations were carried out to estimate the half-maximal inhibitory concentrations (IC50 values) for compounds against Haemonchus contortus (Haecon-5 strain) exsheathed third-stage larvae (xL3s). H. contortus were maintained in experimental sheep and procured in accordance with the institutional animal ethics guidelines and the […]

[12] = ATCC 43300, MIC = concentration at which growth inhibited by ≥80%, range 0.25−32 µg/mL
[13] = ATCC 25922, MIC = concentration at which growth inhibited by ≥80%
[14] = 32 µg/mL, duplicate (n = 2) values

COC1(OC)C(Br)=CC(O)(CC#N)C=C1Br [Compound 7, 2-(3,5-dibromo-1-hydroxy-4,4-dimethoxycyclohexa-2,5-dien-1-yl)acetonitrile]
CC50 [1]: > 32 µg/mL | Haemolysis (HC10) (human red blood cells): >32 µg/mL | MIC [2, 12]: > 32 µg/mL | % inhibition E. coli [3]: 6.2% | inhibition at 32 µg/mL [3]: 11.2% | MIC [3, 13]: > 32 µg/mL | % inhibition K. pneumoniae [4]: 13.3% | inhibition at 32 µg/mL [4]: 10.6% | MIC ([4]; ATCC 700603): > 32 µg/mL | MIC ([5]; ATCC 19606): > 32 µg/mL | MIC [6]: > 32 µg/mL | MIC [7]: > 32 µg/mL | MIC [8]: > 32 µg/mL

COC1=C(Br)[C@@H](O)[C@]2(C=C1Br)CC(C(=O)NCCc1cnc[nH]1)=NO2 [aerophobin-1]
concentration giving significant larval mortality [9]: > 1000 nM

aplysinamisin-1 [reference compound]
feeding deterrent activity, Blennius sphinx [10]: significant feeding deterrent activity

CC[C@H](C)[C@H](NC(=O)CN)C(=O)NCC(=O)N[C@@H](C)C(=O)N[C@H](C(=O)N[C@@H](CC(C)C)C(=O)N[C@@H](CCCCN)C(=O)N[C@H](C(=O)N[C@@H](CC(C)C)C(=O)N[C@H](C(=O)N[C@H](C(=O)NCC(=O)N[C@@H](CC(C)C)C(=O)N1CCC[C@H]1C(=O)N[C@@H](C)C(=O)N[C@@H](CC(C)C)C(=O)N[C@H](C(=O)N[C@@H](CO)C(=O)N[C@@H](Cc1c[nH]c2ccccc12)C(=O)N[C@H](C(=O)N[C@@H](CCCCN)C(=O)N[C@@H](CCCNC(=N)N)C(=O)N[C@@H](CCCCN)C(=O)N[C@@H](CCCNC(=N)N)C(=O)N[C@@H](CCC(N)=O)C(=O)N[C@@H](CCC(N)=O)C(N)=O)[C@@H](C)CC)[C@@H](C)CC)[C@@H](C)O)[C@@H](C)O)C(C)C)C(C)C [Melittin, reference compound]
Haemolysis (HC10) (human red blood cells): Melittin: 2.7 µg/mL

COC(=O)NCCCCNC(=O)C1=NO[C@]2(C=C(Br)C(OC)=C(Br)[C@@H]2O)C1 [Compound 12, subereamolline C]
CC50 [1]: > 32 µg/mL | Haemolysis (HC10) (human red blood cells): >32 µg/mL | % inhibition MRSA [2, 14]: 0.4% and 8.2% | MIC [2, 12]: > 32 µg/mL | % inhibition E. coli [3]: 6.4% | inhibition at 32 µg/mL [3]: 12.3% | MIC [3, 13]: > 32 µg/mL | % inhibition K. pneumoniae [4]: 14.0% and 5.6% | MIC ([4]; ATCC 700603): > 32 µg/mL | MIC ([5]; ATCC 19606): > 32 µg/mL | MIC [6]: > 32 µg/mL | MIC [7]: > 32 µg/mL | MIC [8]: > 32 µg/mL

OC(Cn1cncn1)(Cn1cncn1)c1ccc(F)cc1F [Fluconazole, reference compound]
MIC [7]: 0.125 µg/mL | MIC [8]: 8 µg/mL (≈ 26.1 µM)

CC/C(=C(\c1ccccc1)c1ccc(OCCN(C)C)cc1)c1ccccc1 [Tamoxifen, reference compound]
CC50 [1]: 9 µg/mL (≈ 24.2 µM)

CN[C@H](CC(C)C)C(=O)N[C@H]1C(=O)N[C@@H](CC(N)=O)C(=O)N[C@H]2C(=O)N[C@H]3C(=O)N[C@H](C(=O)N[C@H](C(=O)O)c4cc(O)cc(O)c4-c4cc3ccc4O)[C@H](O)c3ccc(c(Cl)c3)Oc3cc2cc(c3O[C@@H]2O[C@H](CO)[C@@H](O)[C@H](O)[C@H]2O[C@H]2C[C@](C)(N)[C@H](O)[C@H](C)O2)Oc2ccc(cc2Cl)[C@H]1O [Vancomycin, reference compound]
MIC [2]: 1 µg/mL

COC1=C(Br)[C@H](O)[C@@]2(C=C1Br)CC(C(=O)NCCCc1cnc(N)[nH]1)=NO2 [aerophobin-2]
concentration giving significant larval mortality [9]: > 1000 nM

COC(=O)Cc1c(O)cc(Br)c(O)c1Br [Compound 10, subereaphenol B]
CC50 [1]: > 32 µg/mL | Haemolysis (HC10) (human red blood cells): >32 µg/mL | MIC [2, 12]: > 32 µg/mL | % inhibition E. coli [3]: 15.8% and 6.4% | MIC [3, 13]: > 32 µg/mL | % inhibition K. pneumoniae [4]: 9.3% | inhibition at 32 µg/mL [4]: 6.1% | MIC ([4]; ATCC 700603): > 32 µg/mL | % inhibition A. baumannii [5, 14]: −1.4% and −9.2% | MIC ([5]; ATCC 19606): > 32 µg/mL | MIC [6]: > 32 µg/mL | MIC [7]: > 32 µg/mL | % inhibition C. neoformans ([11]; 32 µg/mL): 8.5% | inhibition at 32 µg/mL ([11]; Cryptococcus neoformans, ATCC208821, 32 µg/mL, read-out: % inhibition C. neoformans): 12.4% | MIC [8]: > 32 µg/mL

Colistin [reference compound]
MIC E. coli [3, 13]: Colistin: 0.125 µg/mL | MIC K. pneumoniae ([4]; ATCC 700603): Colistin: 0.25 µg/mL | MIC A. baumannii ([5]; ATCC 19606): Colistin: 0.25 µg/mL | MIC P. aeruginosa [6]: Colistin: 0.25 µg/mL
